Laboratory results reported in PubChem BioAssay AID1963437 (Molecular Pharmacology Branch, DTP, NCI, 2024).

Tested on: OVCAR-8 complex spheroid, growth inhibition
Experiment: Anticancer human tumor OVCAR-8 cell line growth inhibition [Asc];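 note: spheroids exposed to agents for 7 days before readout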;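 for viability, T/C: percent viability relative to DMSO vehicle wells taken as 100%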
Details: for IC50: curve of first compound; for viability, T/C: stronger effect = lower value
Experimental: Multicellular complex tumor spheroid response to apoptosis pathway targeting inhibitors Alrizomadlin, Pelcitoclax, and Dasminapant in combination with a variety of drugs and investigational agents in selected tumor cell lines
The MDM2 inhibitor alrizomadlin, the Bcl-2/Bcl-xL inhibitor pelcitoclax, and the IAPs inhibitor dasminapant were evaluated both individually and in combination with standard of care and investigational anticancer small molecules within a complex spheroid model of solid tumors. . Complex spheroids include a stromal component modeled by human endothelial cells (HUVEC) and fibroblasts modeled by human mesenchymal stem cells (MSCs). The concentration ranges selected for each drug and investigational agent were based upon clinically achievable concentrations if the clinical Cmax of the agent was known.
Compounds. The drugs and investigational agents: alrizomadlin (APG-115; NSC831270), pelcitoclax (APG-1252; NSC835773), dasminapant (APG-1387;NSC834197), TAK-243 (NSC785004), copanlisib (NSC809693), olaparib (NSC753686), talazoparib (NSC767125), cobimetinib (NSC 768068), eltanexor (KPT-8602, NSC 794443), abemaciclib (NSC 768073), sotorasib (NSC818433), adagrasib (NSC 831453), MRTX-1133 (NSC 836407), Iadademestat (ORY1001, NSC 806812), and RMC-4630 (NSC839698), were obtained from the NCI Developmental Therapeutics Program Chemical Repository. The FDA-approved anticancer drug set is available from the Developmental Therapeutics Program at https://dtp.cancer.gov/organization/dscb/obtaining/available plates.htm. […] The stock solutions were prepared in dimethyl sulfoxide (DMSO, Sigma-Aldrich, St. Louis, MO, cat. D2650) at 800-fold the tested concentration and stored at -70 degrees C prior to their use. All drugs and investigational agents were tested over a range starting from a high concentration at or near the clinical Cmax and decreasing in half-log increments. If the clinical Cmax for an agent had not been determined, the highest concentration tested was 10 microM.
The patient-derived cancer (PDC) cell lines include five colon adenocarcinomas: 186277-243-T-J2-PDC, 616215-338-R-J1-PDC, 439559-082-T-J2-PDC, 463943-066-T-J2-PDC, and 519858-162-T-J1-PDC; three pancreatic carcinomas: 323965-272-R-J2-PDC, 521955-158-R6-J3-PDC, and 521955-158-R2-J5-PDC; two uterine sarcomas: 327498-152-R-J2-PDC and 993429-296-R-J1-PDC; two rhabdomyosarcomas: 755483-174-R-J1-PDC and 772245-204-R-J1-PDC; two soft tissue sarcomas: 126254-015-R-J1-PDC and 494315-158-R-J1-PDC; two malignant fibrous histiocytomas: 317291-083-R-J1-PDC and 596521-263-R-J1-PDC; two breast carcinomas: 171881-019-R-J1-PDC and 885512-296-R-J2-PDC; and one ovarian carcinoma: 6556581-035-R-J-PDC were obtained from the NCI PDMR, (https://pdmr.cancer.gov). The established cell lines HSSY-2 synovial sarcoma (RRID:CVCL 8719), SYO-1 synovial sarcoma (RRID:CVCL_7146), MPNST malignant peripheral neural sheath tumor were obtained from the Sloan Kettering Institute. The following established cell lines were purchased from the American Type Culture Collection (ATCC, Manassas, VA), Sor the received from the NCI repository:, PANC-1 pancreatic carcinoma (CRL-1469, RRID:CVCL_0480), OVCAR-5 ovarian carcinoma (RRID:CVCL_1628), OVCAR-8 ovarian carcinoma (RRID:CVCL_1629), , MCF-7 breast carcinoma (CRL-12584, RRID:CVCL_0031), MDA-MB-231 breast carcinoma (CRL-12532, RRID:CVCL_0062), NCI-H1876 small cell lung carcinoma (CRL-5902, RRID:CVCL_1503), NCI-H510A small cell lung carcinoma (HTB-184, RRID:CVCL_1565), NCI-H1417 (CRL-5869, RRID:CVCL_1469), and NCI-H196 small cell lung carcinoma (CRL-5823, RRID:CVCL_1509). Dr. Peter Houghton (Greehey Children's Cancer Research Institute, University of Texas Health Science Center, San Antonio, TX) provided Rh-18 rhabdomyosarcoma (RRID:CVCL_1659). Pooled donor human umbilical vein endothelial cells (HUVEC, Lonza, cat. CC-2519) and human mesenchymal stem cells (hMSC, Lonza, cat. PT-2501) were purchased from Lonza (Walkersville, MD).
Cell Culture. […]

For `CCN1CCN(Cc2ccc(Nc3ncc(F)c(-c4cc(F)c5nc(C)n(C(C)C)c5c4)n3)nc2)CC1` + CCN1C(C(=O)NC23CCC(C(=O)O)(CC2)CC3)C(c2cccc(Cl)c2F)C2(C(=O)Nc3cc(Cl)ccc32)C12CCCCC2, the IC50 (second compound 0.00949 µM) was over 1000 nM, the IC50 (second compound 0.03 µM) was over 1000 nM and the IC50 (second compound 0.0949 µM) was over 1000 nM. For the same molecule, the IC50 (second compound 0.3 µM) was over 1000 nM, the IC50 (second compound 0.949 µM) was over 1000 nM and the IC50 (second compound 3 µM) was over 1000 nM. The viability, T/C (second compound 0.00949 µM, first compound 0.00316 µM) was 85.2%, the viability, T/C (second compound 0.00949 µM, first compound 0.01 µM) was 89.5% and the viability, T/C (second compound 0.00949 µM, first compound 0.0316 µM) was 80.1%. For the same molecule, the viability, T/C (second compound 0.00949 µM, first compound 0.1 µM) was 100%, the viability, T/C (second compound 0.00949 µM, first compound 0.316 µM) was 90.2% and the viability, T/C (second compound 0.00949 µM, first compound 1 µM) was 107%. For the same molecule, the viability, T/C (second compound 0.03 µM, first compound 0.00316 µM) was 98.1%, the viability, T/C (second compound 0.03 µM, first compound 0.01 µM) was 84.4% and the viability, T/C (second compound 0.03 µM, first compound 0.0316 µM) was 102%. For the same molecule, the viability, T/C (second compound 0.03 µM, first compound 0.1 µM) was 89.4%, the viability, T/C (second compound 0.03 µM, first compound 0.316 µM) was 97.5% and the viability, T/C (second compound 0.03 µM, first compound 1 µM) was 117%. It also gave a viability, T/C (second compound 0.0949 µM, first compound 0.00316 µM) of 79.9%, a viability, T/C (second compound 0.0949 µM, first compound 0.01 µM) of 92.2% and a viability, T/C (second compound 0.0949 µM, first compound 0.0316 µM) of 89.8%. It also gave a viability, T/C (second compound 0.0949 µM, first compound 0.1 µM) of 98.6%, a viability, T/C (second compound 0.0949 µM, first compound 0.316 µM) of 95.6% and a viability, T/C (second compound 0.0949 µM, first compound 1 µM) of 126%. It also gave a viability, T/C (second compound 0.3 µM, first compound 0.00316 µM) of 89.7%, a viability, T/C (second compound 0.3 µM, first compound 0.01 µM) of 82.2% and a viability, T/C (second compound 0.3 µM, first compound 0.0316 µM) of 93.1%. For the same molecule, the viability, T/C (second compound 0.3 µM, first compound 0.1 µM) was 93.7%, the viability, T/C (second compound 0.3 µM, first compound 0.316 µM) was 114% and the viability, T/C (second compound 0.3 µM, first compound 1 µM) was 121%. For the same molecule, the viability, T/C (second compound 0.949 µM, first compound 0.00316 µM) was 97.9%, the viability, T/C (second compound 0.949 µM, first compound 0.01 µM) was 86.6% and the viability, T/C (second compound 0.949 µM, first compound 0.0316 µM) was 87.5%. It also gave a viability, T/C (second compound 0.949 µM, first compound 0.1 µM) of 111%, a viability, T/C (second compound 0.949 µM, first compound 0.316 µM) of 90.6% and a viability, T/C (second compound 0.949 µM, first compound 1 µM) of 126%. It also gave a viability, T/C (second compound 3 µM, first compound 0.00316 µM) of 98.5%, a viability, T/C (second compound 3 µM, first compound 0.01 µM) of 112% and a viability, T/C (second compound 3 µM, first compound 0.0316 µM) of 117%. The viability, T/C (second compound 3 µM, first compound 0.1 µM) was 118%, the viability, T/C (second compound 3 µM, first compound 0.316 µM) was 123% and the viability, T/C (second compound 3 µM, first compound 1 µM) was 119%.
